US20260297092A1, “PYRAZOLOPYRIMIDINE DERIVATIVES AS INHIBITORS OF NLRP3” (Takeda Pharmaceutical Company Limited, priority 2023, published 2026)

Key:
[1] = system: NLRP3 inflammasome (IL-1β production in THP-1 cells); experiment: IL-1β TR-FRET Assay (percentage of inhibition at 300 nM, 6 μM or 10 μM); type: cell-based, human; settings: Homo sapiens, LPS priming, ATP activation; for inhibition at 6 µM: THP-1, 6 μM, read-out: IL-1β inhibitory rate at 6 μM (%); for inhibition at 0.3 µM: THP-1, 300 nM, read-out: IL-1β inhibitory rate at 300 nM (%)
In short: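 THP-1 cells were differentiated with 25 ng/mL IFN-γ for 24 h, primed with 50 ng/mL LPS in serum-free medium for 24 h, then given compound for 30 min before 20 mM ATP for 2 h. Supernatant IL-1β was measured by HTRF after 16-24 h at room temperature. Inhibition was normalized between DMSO (high) and 3 μM MCC-950 (low).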

[2] = system: TNF-α (NF-κB pathway, THP-1 cells); experiment: TNF-α Assay (IC50); type: cell-based, human; settings: Homo sapiens, 600 ng/mL LPS, 3 hours
In short: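 THP-1 cells differentiated to macrophages with 25 ng/mL IFN for 24 h, plated 40,000/well in serum-free medium, preincubated with compounds 30 min at 37 °C, then stimulated with 600 ng/mL LPS for 3 h. Supernatant TNF-α measured by ELISA; IC50 from four-parameter logistic fit, 100% inhibition defined by TPCA-1.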

| Structure (SMILES) | IC50 [2] [µM] | inhibition at 6 µM [1] [%] | inhibition at 0.3 µM [1] [%] | inhibition at 10 µM ([1]; THP-1, 10 μM, read-out: IL-1β inhibitory rate at 10 μM (%)) [%] |
| --- | --- | --- | --- | --- |
| CCOc1nc2nn(-c3c(Br)cc(C)c(F)c3F)cc2c(=O)[nH]1 [Example 97, 2-(6-bromo-2,3-difluoro-4-methylphenyl)-6-ethoxy-2,5-dihydro-4H-pyrazolo[3,4-d]pyrimidin-4-one] | > 30 | – | 66 | – |
| CCOc1nc2nn(-c3c(C)cc(C)cc3Cl)cc2c(=O)[nH]1 [Example 70, 2-(2-chloro-4,6-dimethylphenyl)-6-ethoxy-2,5-dihydro-4H-pyrazolo[3,4-d]pyrimidin-4-one] | > 30 | – | 100 | – |
| CCOc1nc2nn(-c3c(C)ccc(CC)c3O)cc2c(=O)[nH]1 [Example 72, 6-ethoxy-2-(3-ethyl-2-hydroxy-6-methylphenyl)-2,5-dihydro-4H-pyrazolo[3,4-d]pyrimidin-4-one] | > 30 | – | 94 | – |
| COCCc1nc2nn(-c3c(C)cc(C)cc3O)cc2c(=O)[nH]1 [Example 38, 2-(2-hydroxy-4,6-dimethylphenyl)-6-(2-methoxyethyl)-2,5-dihydro-4H-pyrazolo[3,4-d]pyrimidin-4-one] | > 30 | – | 100 | – |
| CCOc1nc2nn(-c3c(OCC)cc(C(F)(F)F)cc3C(F)F)cc2c(=O)[nH]1 [Example 95, 2-[2-(difluoromethyl)-6-ethoxy-4-(trifluoromethyl)phenyl]-6-ethoxy-2,5-dihydro-4H-pyrazolo[3,4-d]pyrimidin-4-one] | > 30 | – | 72 | – |
| Cc1cc(C2CC2)cc(C)c1-n1cc2c(=O)[nH]c(O[C@H]3CCOC3)nc2n1 [Example 286, 2-(4-cyclopropyl-2,6-dimethylphenyl)-6-{[(3S)-oxolan-3-yl]oxy}-2,5-dihydro-4H-pyrazolo [3,4-d]pyrimidin-4-one] | > 30 | 98 | – | – |
| Cc1ccc(-n2cc3c(=O)[nH]c(OC4CCOCC4)nc3n2)c(C)c1 [Example 176, 2-(2,4-dimethylphenyl)-6-[(oxan-4-yl)oxy]-2,5-dihydro-4H-pyrazolo[3,4-d]pyrimidin-4-one] | > 30 | – | 101 | – |
| CCOc1nc2nn(-c3c(C)cc(C)cc3C#N)cc2c(=O)[nH]1 [Example 152, 2-(6-ethoxy-4-oxo-4,5-dihydro-2H-pyrazolo[3,4-d]pyrimidin-2-yl)-3,5-dimethylbenzonitrile] | > 30 | – | 92 | – |
| CCOc1nc2nn(-c3c(C)cc(Br)cc3C(F)F)cc2c(=O)[nH]1 [Example 213, 2-[4-bromo-2-(difluoromethyl)-6-methylphenyl]-6-ethoxy-2,5-dihydro-4H-pyrazolo[3,4-d]pyrimidin-4-one] | > 30 | – | 104 | – |
| CCOc1nc2nn(-c3c(C)cc(Br)cc3C)cc2c(=O)[nH]1 [Example 131, 2-(4-bromo-2,6-dimethylphenyl)-6-ethoxy-2,5-dihydro-4H-pyrazolo[3,4-d]pyrimidin-4-one] | > 30 | – | 100 | – |
| CO[C@@H]1C[C@H]1c1nc2nn(-c3c(C)cc(C4CC4)cc3C)cc2c(=O)[nH]1 (racemic) [Example 265, racemic mixture of 2-(4-cyclopropyl-2,6-dimethylphenyl)-6-[(1R,2S)-2-methoxycyclopropyl]-2,5-dihydro-4H-pyrazolo[3,4-d]pyrimidin-4-one and 2-(4-cyclopropyl-2,6-dimethylphenyl)-6-[(1S,2R)-2-methoxycyclopropyl]-2,5-dihydro-4H-pyrazolo[3,4-d]pyrimidin-4-one] | > 30 | 95 | – | – |
| CCOc1nc2nn(-c3c(F)cc(C4CC4)cc3F)cc2c(=O)[nH]1 [Example 103, 2-(4-cyclopropyl-2,6-difluorophenyl)-6-ethoxy-2,5-dihydro-4H-pyrazolo[3,4-d]pyrimidin-4-one] | > 30 | – | 97 | – |
| O=c1[nH]c([C@H]2COCCO2)nc2nn(-c3c(F)cc(C4CC4)cc3C(F)F)cc12 (single isomer, unassigned) [Example 312, 2-[4-cyclopropyl-2-(difluoromethyl)-6-fluorophenyl]-6-[(2R)-1,4-dioxan-2-yl]-2,5-dihydro-4H-pyrazolo[3,4-d]pyrimidin-4-one or 2-[4-cyclopropyl-2-(difluoromethyl)-6-fluorophenyl]-6-[(2S)-1,4-dioxan-2-yl]-2,5-dihydro-4H-pyrazolo [3,4-d]pyrimidin-4-one] | > 30 | 104 | – | – |
| CCOc1nc2nn(-c3c(F)cc(C4CC4)cc3C(F)(F)F)cc2c(=O)[nH]1 [Example 117, 2-[4-cyclopropyl-2-fluoro-6-(trifluoromethyl)phenyl]-6-ethoxy-2,5-dihydro-4H-pyrazolo[3,4-d]pyrimidin-4-one] | > 30 | – | 100 | – |
| CCOc1nc2nn(-c3c(C)cc(C4CC4)cc3F)cc2c(=O)[nH]1 [Example 39, 2-(4-cyclopropyl-2-fluoro-6-methylphenyl)-6-ethoxy-2,5-dihydro-4H-pyrazolo[3,4-d]pyrimidin-4-one] | > 30 | – | 100 | – |

More lines, main results first:

| IC50 [2] [µM] | Structure (SMILES) | inhibition at 6 µM [1] [%] | inhibition at 0.3 µM [1] [%] | inhibition at 10 µM ([1]; THP-1, 10 μM, read-out: IL-1β inhibitory rate at 10 μM (%)) [%] |
| --- | --- | --- | --- | --- |
| > 30 | Cc1cc(C2CC2)cc(C(F)F)c1-n1cc2c(=O)[nH]c(C3COCCO3)nc2n1 (racemic) [Example 316, 2-[4-cyclopropyl-2-(difluoromethyl)-6-methylphenyl]-6-(1,4-dioxan-2-yl)-2,5-dihydro-4H-pyrazolo[3,4-d]pyrimidin-4-one] | 104 | – | – |
| > 30 | Cc1cc(C2CC2)cc(C)c1-n1cc2c(=O)[nH]c(C3CC(F)(F)C3)nc2n1 [Example 262, 2-(4-cyclopropyl-2,6-dimethylphenyl)-6-(3,3-difluorocyclobutyl)-2,5-dihydro-4H-pyrazolo[3,4-d]pyrimidin-4-one] | 100 | – | – |
| > 30 | CCOc1nc2nn(-c3ccc(CC)cc3O)c(C)c2c(=O)[nH]1 [Example 49, 6-ethoxy-2-(4-ethyl-2-hydroxyphenyl)-3-methyl-2,5-dihydro-4H-pyrazolo[3,4-d]pyrimidin-4-one] | – | 98 | – |
| > 30 | CCc1nc2nn(-c3c(C)cc(C4CC4)cc3C)cc2c(=O)[nH]1 [Example 241, 2-(4-cyclopropyl-2,6-dimethylphenyl)-6-ethyl-2,5-dihydro-4H-pyrazolo[3,4-d]pyrimidin-4-one] | 101 | – | – |
| > 30 | Cc1cc(C2(F)CC2)cc(C)c1-n1cc2c(=O)[nH]c(COC(F)F)nc2n1 [Example 263, 6-[(difluoromethoxy)methyl]-2-[4-(1-fluorocyclopropyl)-2,6-dimethylphenyl]-2,5-dihydro-4H-pyrazolo[3,4-d]pyrimidin-4-one] | 104 | – | – |
| > 30 | CO[C@@H]1COCC[C@@H]1c1nc2nn(-c3c(C)cc(C4CC4)cc3C)cc2c(=O)[nH]1 (racemic) [Example 310, racemic mixture of 1,5-anhydro-3-[2-(4-cyclopropyl-2,6-dimethylphenyl)-4-oxo-4,5-dihydro-2H-pyrazolo[3,4-d]pyrimidin-6-yl]-2,3-dideoxy-4-O-methyl-D-erythro-pentitol and 1,5-anhydro-3-[2-(4-cyclopropyl-2,6-dimethylphenyl)-4-oxo-4,5-dihydro-2H-pyrazolo[3,4-d]pyrimidin-6-yl]-3,4-dideoxy-2-O-methyl-D-erythro-pentitol] | 99 | – | – |
| > 30 | CCOc1nc2nn(-c3c(C)cc(OC(F)F)cc3CC(F)(F)F)cc2c(=O)[nH]1 [Example 168, 2-[4-(difluoromethoxy)-2-methyl-6-(2,2,2-trifluoroethyl)phenyl]-6-ethoxy-2,5-dihydro-4H-pyrazolo[3,4-d]pyrimidin-4-one] | – | 98 | – |
| > 30 | CCOc1nc2nn(-c3c(C)cc(CC(F)(F)F)cc3F)cc2c(=O)[nH]1 [Example 156, 6-ethoxy-2-[2-fluoro-6-methyl-4-(2,2,2-trifluoroethyl)phenyl]-2,5-dihydro-4H-pyrazolo[3,4-d]pyrimidin-4-one] | – | – | 97 |
| > 30 | CCOc1nc2nn(-c3c(F)cc(C4CC4)cc3Br)cc2c(=O)[nH]1 [Example 114, 2-(2-bromo-4-cyclopropyl-6-fluorophenyl)-6-ethoxy-2,5-dihydro-4H-pyrazolo[3,4-d]pyrimidin-4-one] | – | 98 | – |
| > 30 | Cc1cc(C)c(-n2cc3c(=O)[nH]c(-c4cccnn4)nc3n2)c(O)c1 [Example 30, 2-(2-hydroxy-4,6-dimethylphenyl)-6-(pyridazin-3-yl)-2,5-dihydro-4H-pyrazolo[3,4-d]pyrimidin-4-one] | – | 100 | – |
| > 30 | COCc1nc2nn(-c3c(C)cc(C)cc3O)cc2c(=O)n1C [Example 8, 2-(2-hydroxy-4,6-dimethylphenyl)-6-(methoxymethyl)-5-methyl-2,5-dihydro-4H-pyrazolo [3,4-d]pyrimidin-4-one] | – | 92 | – |
| > 30 | COc1ccccc1-c1nc2nn(-c3c(C)cc(C)cc3O)cc2c(=O)[nH]1 [Example 47, 2-(2-hydroxy-4,6-dimethylphenyl)-6-(2-methoxyphenyl)-2,5-dihydro-4H-pyrazolo[3,4-d]pyrimidin-4-one] | – | 98 | – |
| > 30 | Cc1ccc(-n2cc3c(=O)[nH]c(OC4CCC4)nc3n2)c(C)c1 [Example 87, 6-(cyclobutyloxy)-2-(2,4-dimethylphenyl)-2,5-dihydro-4H-pyrazolo[3,4-d]pyrimidin-4-one] | – | 97 | – |
